For one series, the system named is GHOST CCR5 cells. As to conditions: GHOST CCR5 cells; XTT; triplicate.
For the next series, the system named is HIV-1BaL. In words: Anti-HIV-1BaL activity (reverse transcriptase activity) in GHOST CCR5 cells. Particulars: for EC50: read-out: Inhibition of HIV-1BaL EC50, RT activity, triplicate.
The test system of series [1] is HIV-1BaL Env-pseudotyped Luc-expressing virus. In words: HIV-1 infection assay in PHA-stimulated PBMC cells. Particulars: PHA-stimulated PBMCs; 10 nM. In kind it is cell-based. On the procedure: Peripheral blood mononuclear cells (PBMCs) include large numbers of CCR5-expressing leukocytes and are susceptible to infection by R5-tropic HIV-1 strains.
In a 24-well plate, PHA-stimulated PBMC cells from healthy donors were infected by incubation with the HIV-1BaL.01 env-pseudotyped Luc virus. A concentration of HIV-1 p24 50 pg/106 cells was used, and uninfected cells served as a negative control. […] After approximately 18-20 h, the supernatant was removed and stored at −80° C., cells were rinsed twice with PBS and lysed. The lysate was subsequently tested for the relative Tat protein expression by using a luciferase assay system (Promega). Luciferase activity was measured using a PHERASTAR® FS plate reader (BMG Labtech).

The target of series [2] is T1, mouse MOR (Mus musculus (Mouse), UniProt P42866). Particulars: [35S]GTPγS binding; data reported before, shown for comparison; cited from earlier work.
T1 sequence (P42866 whole entry, looked up): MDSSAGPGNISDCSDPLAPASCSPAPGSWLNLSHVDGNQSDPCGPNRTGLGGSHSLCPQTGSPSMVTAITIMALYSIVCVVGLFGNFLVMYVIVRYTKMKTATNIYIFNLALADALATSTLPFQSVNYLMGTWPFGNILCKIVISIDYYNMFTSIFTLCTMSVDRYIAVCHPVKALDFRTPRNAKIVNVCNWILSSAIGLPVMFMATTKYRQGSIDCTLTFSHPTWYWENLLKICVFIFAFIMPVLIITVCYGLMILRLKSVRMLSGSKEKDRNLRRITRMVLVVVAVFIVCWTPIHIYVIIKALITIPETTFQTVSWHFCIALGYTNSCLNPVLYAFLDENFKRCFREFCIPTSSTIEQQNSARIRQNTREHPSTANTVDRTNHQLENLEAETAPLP
The target in series [3] is T2, Rhesus macaque chemokine CCR5 receptors (Macaca mulatta (Rhesus macaque), UniProt P61813). As to conditions: data reported before; similar assay with minor differences; read-out: CCR5 Radioligand Binding Affinity Ki; cited from earlier work.
For series [4], the target named is T3, CCR5 (Homo sapiens (Human), UniProt P51681). As to conditions: data reported before, shown for comparison; read-out: Inhibition of CCL5-stimulated Intracellular Ca2+ Mobilization IC50; cited from earlier work. (In general: Calcium assays in cells follow changes in intracellular calcium, usually with a dye or a luminescent sensor.)
T3 sequence (P51681 whole entry): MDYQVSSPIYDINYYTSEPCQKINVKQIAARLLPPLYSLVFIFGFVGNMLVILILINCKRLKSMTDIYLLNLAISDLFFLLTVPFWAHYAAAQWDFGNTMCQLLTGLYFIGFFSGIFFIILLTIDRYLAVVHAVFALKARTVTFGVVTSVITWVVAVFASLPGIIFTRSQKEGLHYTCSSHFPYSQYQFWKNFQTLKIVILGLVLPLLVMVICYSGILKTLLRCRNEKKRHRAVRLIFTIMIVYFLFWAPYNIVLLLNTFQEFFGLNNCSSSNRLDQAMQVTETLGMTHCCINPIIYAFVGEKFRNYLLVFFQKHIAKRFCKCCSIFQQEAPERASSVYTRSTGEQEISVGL
For series [5], the target named is T4, mouse mu opioid receptor (Mus musculus (Mouse), UniProt P42866). As to conditions: read-out: Inhibition of DAMGO Induced Ca2+ Mobilization IC50; data reported before, shown for comparison; cited from earlier work.
T4 sequence (P42866 whole entry, looked up): as the sequence (P42866 whole entry, looked up) above
Series [6] has as its target T1, mouse MOR. The series can be described thus: In vitro MOR radioligand binding assay. As to conditions: [3H]naloxone radioligand; mMOR-CHO; mean ± SEM; read-out: MOR Radioligand Binding Affinity Ki.
Protocol: In vitro MOR radioligand binding studies. All bivalent ligands were first tested for their binding affinity to the MOR. The competitive radioligand binding assay was conducted using monoclonal mouse MOR expressed in CHO cell lines (mMOR-CHO).
In vitro MOR radioligand binding assay The competition binding assay was conducted using monoclonal mouse MOR expressed in Chinese hamster ovary (CHO) cell lines. In this assay, 30 μg of membrane protein was incubated with the radioligand [^3H] naloxone in the presence of different concentrations of tested compounds in TME buffer (50 mM Tris, 3 mM MgCl2, and 0.2 mM EGTA, pH 7.4) for 1.5 h at 30° C. The bound radioligand was separated by filtration using a Brandel harvester. […] The IC50 values were determined and converted to Ki values using the Cheng-Prusoff equation: Ki=IC50/[1+([L*]/KD)], where [L*] is the concentration of the radioligand and KD is the KD of the radioligand was determined.73
The target in series [7] is T1, mouse MOR. The series can be described thus: [35S]GTPγS functional assay in mMOR-CHO. The format is biochemical. As to conditions: [35S]GTPγS binding, mean ± SEM. On the procedure: After incubation, the bound radioactive ligand was separated from the free radioligand by filtration through a GF/B glass fiber filter paper and rinsed three times with ice-cold wash buffer (50 mM Tris-HCl, pH 7.2) using the Brandel harvester.

Series [8] addresses T4, mouse mu opioid receptor. The series can be described thus: Calcium mobilization assay in mMOR-CHO cells. In kind it is cell-based. Here is the method:
Calcium mobilization assay results in mMOR-CHO cells. The pharmacological profiles of the three newly prepared MOR bivalent ligands were further characterized for their effects on MOR-dependent intracellular Ca^2+ signaling in an mMOR-CHO cell line that was transfected with chimeric Gqi5 protein as previously described.
A CHO cell line stably expressing the mouse mu opioid receptor (mMOR-CHO) was used for this assay. The cells were transfected with Gαqi5 for 4 h and then plated (10,000 cells/well) to black 96-well plates with clear bottoms (Greiner Bio-One). After 24 h of incubation, the culture medium was removed, and the cells were washed with assay buffer (50 mL of HBSS, 1 mL of HEPES, 250 μL of probenecid, 50 μL of 1 mM CaCl2, and 50 μL of 1 mM MgCl2). The tested compounds were dissolved in DMSO as a stock solution for the assay (1 M). For agonist assays, cells were then incubated with 50 μL/well loading buffer (6 mL of assay buffer, 24 μL of Fluo4-AM solution (Invitrogen), and 12 μL of probenecid solution) for 60 min. Following incubation, different concentrations of the tested compounds were added by a FlexStation3 microplate reader (Molecular Devices) and read at ex494/em516. Each concentration was run in triplicate. For antagonism studies, the cells were incubated with the same loading buffer as the agonist assay for 60 min. Then, different concentrations of the tested compounds (20 μL/well) were manually added to each well followed by another 15 min of incubation. […] Each concentration was run in triplicate. The corresponding IC50 value of each compound was calculated by non-linear regression using GraphPad Prism 8.0.1 (GraphPad Software, San Diego, CA).

Series [9] concerns the target T2, Rhesus macaque chemokine CCR5 receptors. In words: In vitro CCR5 radioligand binding assay. Particulars: [125I]MIP-1α radioligand; Chem-1 cells; Cheng-Prusoff; mean ± SEM; read-out: CCR5 Radioligand Binding Affinity Ki. Here is the method: In vitro CCR5 radioligand binding studies. To verify the binding affinity of the bivalent ligands to the CCR5, the competitive radioligand binding assay was conducted in recombinant rhesus macaque CCR5-expressing Chem-1 cells, and macrophage inflammatory protein 1 beta (MIP-1β) was used as a control.
The CCR5 competitive radioligand binding assay was conducted following previously reported studies.74, 75 Rhesus macaque chemokine CCR5 receptors expressed in Chem-1 cells are assayed in modified HEPES buffer (50 mM HEPES, 1 mM CaCl2, 5 mM MgCl2, 0.2% BSA, pH 7.4). 3 μg of membrane protein was incubated with 0.10 nM [^125I]MIP-1α in the presence of six concentrations of tested compounds (10 μM, 1 μM, 0.1 μM, 10 nM, 1 nM, and 0.1 nM) for 90 min at 25° C. Non-specific binding is estimated in the presence of 0.1 μM MIP-1β.

For series [10], the target named is T3, CCR5. The series can be described thus: Calcium mobilization assay in HOS-CCR5 cells. The format is cell-based. On the procedure: We then conducted the calcium mobilization assay to further test both the agonist and antagonist properties of the newly synthesized compounds in the HOS-CCR5 (stably transfected for the expression of CCR5) cells using our reported protocol, as calcium mobilization is associated with the activation of CCR5. Prior to the assay, the HOS-CCR5 cells were transiently transfected with a Gqi5 to boost calcium signaling levels.
In the antagonism assay, these compounds were assessed for their ability to inhibit CCL5-stimulated Ca^2+ mobilization.
HOS-CCR5 cells were transfected with Gqi5 pcDNA16 using Lipofectamine 2000 (Invitrogen) according to the manufacturer's recommended procedure and maintained in RPMI 1640 supplemented with 10% fetal bovine serum, 100 μg/mL penicillin, 100 μg/mL streptomycin, and 1 mg/mL G418 at 37° C. and 5% C02. 48 h after transfection, a total of 2,500,000 cells were spun down and brought back up in 8 mL of 50:1 HBSS: HEPES assay buffer. Cells were then plated at 25,000 cells per well into a clear bottom, black 96-well plate (Greiner Bio-one) and 50 μL of Fluo4 loading buffer [40 μL of 2 μM Fluo4-AM (Invitrogen), 100 μL of 2.5 mM probenecid, in 5 mL of assay buffer] was added to bring the volume up to 130 μL. After incubating for 45 min, 50 μL of varying concentrations of tested compounds were added and the plate was incubated for an additional 15 min. Plates were then read on a FlexStation3 microplate reader (Molecular Devices) at 494/516 ex/em for a total of 120 s. After 16 s of reading, 20 μL of 200 nM CCL5 (Biosource) in assay buffer, or assay buffer alone, was added to the wells to bring the total volume up to 200 μL. The changes in calcium mobilization were monitored and peak height values were obtained using SoftMaxPro software (Molecular Devices). Non-linear regression curves and IC50 values were generated using GraphPad Prism 8.0.1 (GraphPad Software, San Diego, CA). All experiments were repeated at least three times.

Read-outs that look alike come from different tables or passages of the source. Marks after values point to notes of the source that are not given here. Bounds are passed on as bounds.

Take `Cc1nnc(C(C)C)n1C1C[C@H]2CC[C@@H](C1)N2CC[C@H](NC(=O)C1CCC(F)(F)CC1)c1ccccc1` (stereo in doubt) [Maraviroc]: in the series with GHOST CCR5 cells, the “Cytotoxicity TC50” value is >500 nM. Besides, in the series on HIV-1BaL, the “TI (TC50/EC50)” value is recorded as >28 and the EC50 amounted to 18 ± 2 nM.
With `C[C@@H](NC(=O)[C@@H](N)Cc1ccc(O)cc1)C(=O)NCC(=O)N(C)[C@@H](Cc1ccccc1)C(=O)NCCO` [DAMGO, [D-Ala2-MePhe4-Gly(ol)5]enkephalin, reference compound], in series [1], the “effect of opioid exposure on HIV expression” value is “remarkable increases in HIV expression”.
For `Cc1nnc(C(C)C)n1C1CC2CCC(C1)N2CC[C@H](NC(=O)C1CCC(F)(F)CC1)c1ccc(NC(=O)COCC(=O)NCCCCCCCNC(=O)COCC(=O)N[C@@H]2CC[C@@]3(O)[C@H]4Cc5ccc(O)c6c5[C@@]3(CCN4CC3CC3)[C@H]2O6)cc1` (stereo partly drawn) [VZMC001], in the series on GHOST CCR5 cells, the “Cytotoxicity TC50” value was >100000 nM. In addition, the “% Emax of DAMGO” value at mouse MOR [2] was 11.7 ± 1.2^b %. In series [3], the Ki was 239 ± 56 nM. Moreover, the results for the IC50 at CCR5 [4] and on mouse mu opioid receptor [5] were 126 nM and 40 nM, respectively. In addition, in the series with HIV-1BaL, the EC50 was > 100000 nM.
On to `CNC(=O)COCC(=O)NCCCNC(=O)COCC(=O)N[C@@H]1CC[C@@]2(O)[C@H]3Cc4ccc(O)c5c4[C@@]2(CCN3CC2CC2)[C@H]1O5` [VZMC002], for which, in the series on GHOST CCR5 cells, the “Cytotoxicity TC50” value is >100000 nM.
Take `CC(C)c1nnc(CCNC(=O)COCC(=O)NCCCCCCCCCNC(=O)COCC(=O)NC2CC[C@@]3(O)[C@H]4Cc5ccc(O)c6c5[C@@]3(CCN4CC3CC3)[C@H]2O6)n1C1CC2CCC(C1)N2CC[C@H](NC(=O)C1CCC(F)(F)CC1)c1ccccc1` (stereo partly drawn) [VZMC017]: the Ki on mouse MOR [6] came out at 11.2 nM; in series [9], 5.7 ± 0.23 nM. The “% Emax of DAMGO” value at mouse MOR [7] is 4.27 ± 0.66^a %. Moreover, the IC50 turned out to be 74.4 nM at mouse mu opioid receptor [8] and 965 ± 30.5 nM on CCR5 [10].
For “CCL5: C—C motif chemokine ligand 5, control CCR5 agonist”, the EC50 with CCR5 [10] (agonist mode, HOS-CCR5 transfected with Gqi5, read-out: CCR5 Ca2+ mobilization agonism EC50) was 155 ± 6.58 nM.

B1: MIP-1β: macrophage inflammatory protein 1 beta, used as a control (protein, UniProt P13236 24-92, looked up)
C-C motif chemokine 4: APMGSDPPTACCFSYTARKLPRNFVVDYYETSSLCSQPAVVFQTKRSKQVCADPSESWVQEYVYDLELN
Consider B1, for which the Ki in series [9] came to 0.056 ± 0.006 nM.

One may read the EC50 as the midpoint of the concentration-response curve. For orientation: Ki means a measure of affinity in units of concentration, obtained from inhibition or displacement. As a reminder, the IC50 is the midpoint of a concentration-inhibition curve.

Values taken from patent publication US20240208984A1, “BIVALENT LIGANDS TO UNDERSTAND DIMERIZATION OF THE MU OPIOID RECEPTOR AND THE CHEMOKINE RECEPTOR CCR5 IN NEUROLOGICAL DISORDERS” (priority 2021, published 2024).
